Measurements as given in patent US10428336B2, “Method for modulating plant growth” (The Australian National University, priority 2013, dated 2019).
Square brackets hold non-standard residues; d marks the D form. Ends that are not written are not given here. Hyp = O=C(O)[C@@H]1C[C@@H](O)CN1

Key:
M. truncatula roots = test: Exogenous application of synthetic CEP peptides to M. truncatula roots; type: in vivo, Medicago truncatula; settings: synthetic ligand applied to roots
Excerpt: The CEP peptides were synthesized at the Biomolecular Resource Facility, The Australian National University. The 15 amino acid (aa) peptides corresponding to the conserved domains of MtCEP1 (AFQHypTTPGNSHypGVGH and EFQKTNPGHSHypGVGH—SEQ ID Nos: 451 and 452 respectively—where Hyp indicates hydroxy proline residue) and M. hapla MhCEP2 (AFRHypTAPGHSHypGVGH; SEQ ID NO: 453) were synthesized and validated as previously described in Djordjevic M A, et al. (2011), “Border sequences of Medicago truncatula CLE36 are specifically cleaved by endoproteases common to the extracellular fluids of Medicago and soybean”, J Exp Bot 62(13):4649-4659. The root length of wild-type plants was measured four days after transfer to Fåhraeus-medium containing the synthetic peptide. For the hormone assays, A17 plants were grown on Fåhraeus-medium for 10 days before transferring to Fåhraeus-medium containing 10^−6 M of the respective phytohormones; 1-aminocyclopropane-1-carboxylic acid (ACC), 6-benzylaminopurine (BAP), gibberellic acid (GA), synthetic analog of strigolactone (GR24), methyl jasmonate (MeJA) and 1-naphthaleneacetic acid (NAA).

Arabidopsis root growth = settings: synthetic 15 amino acid peptide at 10^−6 M to 10^−7 M; cited from earlier work
[1] = test system: Brachypodium distachyon BD21; test: Shoot growth of B. distachyon in layered agar medium containing CEP peptide; type: in vivo; settings: 16 day old plants, 1 μM peptide in medium with barrier; for shoot length: vs no peptide controls, ANOVA
Procedure: Brachypodium. distachyon BD21 seeds were sterilised by washing in 80% ethanol for 1 minute, followed by shaking in 50 ml of 10% stock sodium hypochlorite (Northfork) with 200 μl of Triton X-100 (per 50 mL) for 5 minutes, before rinsing three times in sterile water. Seeds were then stratified for 3 days in the dark at 4° C. to induce synchronized germination. Plants were grown at 21° C. on a 16/8 h light/dark cycle in a constant environment walk-in cabinet (100 μmol/m^−2/s^−2).
Murashige and Skoog basal medium (Sigma-Aldrich Corporation, St. Louis, USA) was prepared (2.2 g/L, sterile RO water), 10% MES buffer added, and the pH adjusted to 5.7 using 1 M KOH. Falcon tubes (BD Biosciences, Australia; 50 mL max volume) containing two agar layers were prepared using the following ranges of agar concentrations: 0.2%, 0.4%, 0.5%, 0.8%, 1.0% for soft top layer and 0.5%, 1.0%, 1.5%, 2.0%, 2.5%, 3.0% and 4.0% for hard bottom layer. Type-M agar (Sigma-Aldrich Corporation) was used in all experiments. The hard layers contained 15 mL of agar and the (upper) soft layers contained 10 mL of agar. Seeds were placed one per falcon tube for root assays, with embryos facing away from the media.
Synthetic CEP peptides corresponding to those predicted to be the final products of the BdCEP1 and AtCEP5 coding sequences (SEQ ID NOs: 483 and 11, respectively) were prepared (but the BdCEP1 peptide was synthesized missing the first two amino acids, and designated as BdCEP3a in FIGS. 16 and 17) and added to molten media (60° C.) to a final concentration of 1μM.
Tubes were set up with optimal agar concentrations of 0.5% for soft top layer and 2.5% for hard bottom layer which induced a strong mechanical response in untreated plants. A layered agar system with no peptide addition and an un-layered system (0.5%, uniform agar concentration; 25 ml) with no peptide addition were used as controls. Each tube was fitted into an 8 slot Falcon tube rack which was covered in aluminum foil to minimize light exposure to the root systems. This system allowed tubes to be periodically removed for easy visual inspection. The upper level of the soft layer was below the level of the rack.
Shoot length was measured at the end of the growth period. Data obtained from analyzing root system measurements were statistically analyzed.

[2] = test system: Arabidopsis thaliana (accession Col-0); test: Root growth assay of Col-0 plants on standard medium supplemented with synthetic CEP peptides; type: in vivo; settings: 12-day-old Col-0 plants, peptide at 10−6 M (1 μM), compared to untreated plants
Procedure: FIG. 8—CEP synthetic peptides decrease primary root length and lateral root density. (A) CEP peptides used in growth assays. (hyP) indicates hydroxyproline residues. (B) Alignment of CEP3, CEP5 and CEP9.1 peptide domains. (C) Primary root length and lateral root density of 12-day-old Col-0 plants grown on standard medium supplemented with 1 μM of the specified peptide. n≥7 plants. (D) Differential biological activity of CEP3, CEP5 and CEP9 peptide variants. The histogram indicates the lowest concentration at which a peptide elicited a significant reduction in primary root length compared to untreated plants (P<0.05). Col-0 plants were grown vertically for 12 days on standard medium supplemented with peptide concentrations ranging from 10^−6 M to 10^−12 M. n=7-16 plants. Error bars show standard error. *P≤0.05; **P≤0.01; *** P≤0.001 (two-sample t-test, Genstat).
For root assays, seeds of Arabidopsis thaliana (accession Col-0) were surface sterilized with 6.25% bleach, stratified for 3-4 days and sown onto plates. […] Plates were imaged using an Epson scanner and images were analysed using the SmartRoot plugin (Lobet et al., 2011) in ImageJ. Statistically significant differences were determined using a two-sample t-test (Genstat 14th edition) where appropriate. […]

## AFQHypTTPGNSHypGVGH and EFQKTNPGHSHypGVGH [MtCEP1]
M. truncatula roots
  root phenotype (periodic bumps resembling galls): periodic bumps induced

## AFR[Hyp]TAPGHS[Hyp]GVGH [MhCEP2]
M. truncatula roots
  root phenotype (periodic bumps resembling galls): periodic bumps induced

## CEP1: synthetic 15 amino acid CEP1 peptide of Ohyama et al., 2008 (DFRPTNPGNSPGVGH; ends and bridges not checked; listed as Arabidopsis thaliana)
Arabidopsis root growth
  root growth: inhibited root growth

## DFRPTTPGHSPGIGH [AtCEP5]
[1]
  number of leaves per plant on average: 4.9 leaves
  shoot length: significantly longer shoots

## DFVPTSPGNSPGVGH [CEP9.1, synthetic non-hydroxylated CEP9.1 peptide domain]
[2]
  lateral root density: reduced lateral root density
  primary root length: much weaker effect on primary root length

## DSTTPGHSPSIGH (also: hydroxyproline predicted at Pro5 and Pro9, not given here for synthetic peptide) [BdCEP1, BdCEP1 peptide synthesized missing the first two amino acids, designated BdCEP3a]
[1]
  number of leaves per plant on average: 4.7 leaves
  shoot length: significantly longer shoots
